Results published in patent US11649238B2, “Substituted pyrazolo[1,5-a]pyrimidines as PI4K inhibitors” (GLAXOSMITHKLINE INTELLECTUAL PROPERTY DEVELOPMENT LIMITED, priority 2018, dated 2023).
Where “and” joins values, the source holds several entries; their conditions need not be identical. Equal values may be shown once.

What was measured:
[1] = molecular target: T1, human PI4KIII-beta 13-828 (D316-330) (Homo sapiens, UniProt Q9UBF8); assay: PI4 KB Activity Assay (ADP-GLO Kinase assay); type: biochemical; settings: 1 mM ATP, 60 μM phosphatidylinositol, 3 hours at room temperature; read-out: mean pIC50 (converted)
T1 construct: human PI4KIII-beta 13-828 (D316-330)
Outline: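 Human PI4KIII-beta 13-828 (Δ316-330), 1.5 nM, with 1 mM ATP and 60 μM phosphatidylinositol in Hepes pH 7.5/MgCl2 buffer, 11-point titration (top 10 μM, 1% DMSO), 3 h at room temperature. ADP measured by ADP-Glo luminescence; IC50 by four-parameter fit against no-compound and no-enzyme controls.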

PI4KIIIβ = PI4KIIIβ (Homo sapiens, UniProt Q9UBF8); assay: Residence Time Assay (Caliper conditioning assay and jump dilution); type: biochemical; settings: jump dilution, 2 mM ATP, 1 μM Bodipy-PI
Method: Caliper Conditioning Assay
Compound dilutions were prepared in 100% DMSO using a 1 in 3 serial step dilution and a top concentration of 1 mM. A 200 nL stamp from a 12-point titration was transferred to a black 384-well Greiner assay plate ensuring a final DMSO concentration of 1% across the plate and a top final concentration of inhibitor of 10 μM in 20 μL final assay volume. To a well of a 384-well assay plate 10 μL of 2× Enzyme buffer was pre-incubated with compound for 1 h. Buffer without enzyme was used as 100%-inh control. 10 μL of 2× substrate solution was added to initiate the assay such that the final concentrations were 2 mM ATP and 1 μM Bodipy-PI and the plate was incubated at 25° C. for 3 hours. The enzymatic reaction was terminated by adding 40 μL of stop buffer and Substrate (PI) and product (PIP) present in each sample were separated electrophoretically using a LabChip 3000 capillary electrophoresis instrument CALIPER LABCHIP 3000 Drug Discovery System and detected using blue laser (480 nm) for excitation and green CCD (520 nm) for detection (CCD2). Negative control samples (0%-inhibition in the absence of inhibitor) and positive control samples (100%-inhibition, in the absence of enzyme) were assembled in replicates of 48 (4 replicates per caliper sipper) and were used to calculate %-inhibition values in each test well. Percent inhibition (Pinh) was determined using following equation: Pinh=(PSRO %−PSRinh)/(PSRO %−PSR100%)×100
Where PSRinh is the product sum ratio in the presence of inhibitor, PSRO % is the average product sum ratio in the absence of inhibitor and PSR100% is the average product sum ratio in 100%-inhibition control samples; the IC50 values of inhibitors are determined by fitting the inhibition curves (Pinh versus inhibitor concentration) to the 4 parameter sigmoid dose-response model using XLfit 4 software (IBDS).
In a small Eppendorf tube, 5 μL of 2× enzyme solution (0.4 μM-0.8 μM) was mixed with 5 μL 2× compound solution containing 40 to 120-fold the IC50 value determined at 2 mM ATP as described above, and incubated for 1 h at room temperature. The assay was initiated by rapidly mixing 2 μL of the enzyme preincubation mixture with 800 μL substrate mix containing 2 mM ATP and 1 μM Bodipy-PI. 60 μL of each sample was transferred into low volume Greiner 384-well plate, and the Substrate (PI) and product (PIP) present in each sample were separated electrophoretically using a LabChip 3000 capillary electrophoresis instrument CALIPER LABCHIP 3000 Drug Discovery System and detected using blue laser (480 nm) for excitation and green CCD (520 nm) for detection (CCD2) for approximately 8 h (200 measurements from each well). […]

PI4KIIIβ, sequence (Q9UBF8 whole entry): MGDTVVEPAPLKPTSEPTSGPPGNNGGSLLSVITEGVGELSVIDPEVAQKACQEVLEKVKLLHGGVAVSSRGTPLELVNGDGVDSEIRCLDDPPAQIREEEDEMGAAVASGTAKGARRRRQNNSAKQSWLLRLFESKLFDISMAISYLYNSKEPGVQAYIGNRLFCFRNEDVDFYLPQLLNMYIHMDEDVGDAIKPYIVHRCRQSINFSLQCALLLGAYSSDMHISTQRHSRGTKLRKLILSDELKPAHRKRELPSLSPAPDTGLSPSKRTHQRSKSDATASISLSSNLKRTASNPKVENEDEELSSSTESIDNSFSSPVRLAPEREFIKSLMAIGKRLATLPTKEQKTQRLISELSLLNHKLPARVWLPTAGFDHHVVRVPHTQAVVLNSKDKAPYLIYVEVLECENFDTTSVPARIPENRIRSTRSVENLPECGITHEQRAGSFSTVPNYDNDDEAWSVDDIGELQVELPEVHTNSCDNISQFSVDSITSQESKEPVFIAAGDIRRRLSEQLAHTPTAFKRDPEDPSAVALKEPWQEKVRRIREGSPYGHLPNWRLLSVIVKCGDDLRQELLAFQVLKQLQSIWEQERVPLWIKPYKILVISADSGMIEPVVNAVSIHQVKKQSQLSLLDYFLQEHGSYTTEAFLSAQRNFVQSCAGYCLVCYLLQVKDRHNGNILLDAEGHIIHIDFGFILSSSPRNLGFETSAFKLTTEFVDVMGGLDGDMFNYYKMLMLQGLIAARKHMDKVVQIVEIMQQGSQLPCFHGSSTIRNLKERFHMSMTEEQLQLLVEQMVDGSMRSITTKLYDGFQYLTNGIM
T1 sequence (Q9UBF8 1-801 isoform Q9UBF8-2): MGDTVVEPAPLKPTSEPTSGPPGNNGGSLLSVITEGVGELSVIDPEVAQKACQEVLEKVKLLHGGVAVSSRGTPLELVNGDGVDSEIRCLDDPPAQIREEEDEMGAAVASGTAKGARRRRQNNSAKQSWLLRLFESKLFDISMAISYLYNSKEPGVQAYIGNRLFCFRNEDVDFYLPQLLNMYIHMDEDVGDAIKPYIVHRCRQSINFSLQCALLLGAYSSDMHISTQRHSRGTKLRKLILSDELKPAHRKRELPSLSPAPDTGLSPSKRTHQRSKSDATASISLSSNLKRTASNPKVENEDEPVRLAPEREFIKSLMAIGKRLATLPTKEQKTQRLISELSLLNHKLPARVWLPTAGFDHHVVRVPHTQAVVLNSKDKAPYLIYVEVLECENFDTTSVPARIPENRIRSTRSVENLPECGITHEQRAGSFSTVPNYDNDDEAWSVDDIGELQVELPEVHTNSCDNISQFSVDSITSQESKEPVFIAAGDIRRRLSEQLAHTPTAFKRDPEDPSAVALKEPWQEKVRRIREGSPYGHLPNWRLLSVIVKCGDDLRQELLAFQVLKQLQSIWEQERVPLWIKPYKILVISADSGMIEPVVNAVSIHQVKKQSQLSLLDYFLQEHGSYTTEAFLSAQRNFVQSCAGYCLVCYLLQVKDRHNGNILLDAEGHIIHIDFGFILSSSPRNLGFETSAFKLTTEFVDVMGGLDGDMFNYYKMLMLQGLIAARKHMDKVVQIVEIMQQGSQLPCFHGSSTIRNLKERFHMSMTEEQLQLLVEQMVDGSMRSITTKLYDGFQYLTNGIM

Row | Structure (SMILES) | IC50 [1] | residence time (PI4KIIIβ)
1 | COc1ccc(-c2c(C)nn3c(NCc4cccc(-c5nccn5C)c4)cc(C(C)(C)O)nc23)cc1C(=O)N(C)C1CCOCC1 [Compound 21, 5-(5-(2-Hydroxypropan-2-yl)-2-methyl-7-((3-(1-methyl-1H-imidazol-2-yl)benzyl)amino)pyrazolo[1,5-a]pyrimidin-3-yl)-2-methoxy-N-methyl-N-(tetrahydro-2H-pyran-4-yl)benzamide] | 6.31 nM | 528 min
2 | Cc1ccc(-c2c(C)nn3c(NCc4cccc(-c5nccn5C)c4)cc(C(C)(C)O)nc23)cc1C(=O)N(C)CCCO [Compound 17, 5-(5-(2-Hydroxypropan-2-yl)-2-methyl-7-((3-(1-methyl-1H-imidazol-2-yl)benzyl)amino)pyrazolo[1,5-a]pyrimidin-3-yl)-N-(3-hydroxypropyl)-N,2-dimethylbenzamide] | 2.51 nM and ≤ 3.98 nM | 542 min
3 | CCN(CCO)C(=O)c1cc(-c2c(C)nn3c(NCc4cccc(-c5nccn5C)c4)cc(C(C)(C)O)nc23)ccc1OC [Compound 19, N-ethyl-N-(2-hydroxyethyl)-5-(5-(2-hydroxypropan-2-yl)-2-methyl-7-((3-(1-methyl-1H-imidazol-2-yl)benzyl)amino)pyrazolo[1,5-a]pyrimidin-3-yl)-2-methoxybenzamide] | 2.51 nM and ≤ 3.98 nM | 997 min
4 | Cc1ccc(-c2c(C)nn3c(NCc4cccc(-c5nccn5C)c4)cc(C(C)(C)O)nc23)cc1C(=O)N(C)[C@@H](C)CO [Compound 22, (S)—N-(1-hydroxypropan-2-yl)-5-(5-(2-hydroxypropan-2-yl)-2-methyl-7-((3-(1-methyl-1H-imidazol-2-yl)benzyl)amino)pyrazolo[1,5-a]pyrimidin-3-yl)-N,2-dimethylbenzamide] | 3.16 nM and ≤ 3.98 nM | 1670 min
